Measurements as given in US20130064831A1, “IMMUNOTHERAPEUTIC DOSING REGIMENS AND COMBINATIONS THEREOF” (Bristol-Myers Squibb Company, priority 2010, published 2013).

What was measured:
melanoma = conditions: cited from earlier work
[1] = test system: ovarian or prostate cancer; conditions: some patients with ovarian or prostate cancer; cited from earlier work
NSCLC Subjects = experiment: CA184041 phase II trial: safety, exposure and discontinuation; conditions: in vivo
Description: Blinded Study Drug: Ipilimumab 10 mg/kg or matched placebo administered as a single dose intravenously over 90 minutes every 3 weeks (up to 6 doses) as part of induction. Subjects may receive additional maintenance Ipilimumab/placebo at a dose of 10 mg/kg and administered intravenously over 90 minutes every 12 weeks starting 24 weeks after the first Ipilimumab/placebo dose. Dose reductions were not permitted. […] Dose modifications (reductions as well as delays) are as per product label. PARAPLATIN®: AUC=6 administered as a single dose intravenously over 30 minutes every 3 weeks (up to 6 doses). Dose modifications (reductions as well as delays) are as per product label. Treatment with blinded Ipilimumab (active or placebo) proceeded until immune-related tumor progression as defined by the irRC is observed or intolerable toxicity occurs.
Safety was summarized and listed for all treated subjects using the National Cancer Institute (NCI) Common Terminology Criteria for Adverse Events (CTCAE) version 3.0 by treatment arm for each tumor type. All treatment emergent AEs, drug-related treatment emergent AEs, serious AEs and drug-related SAEs were tabulated using worst grade per NCI CTCAE v3.0 criteria by system, organ, class, and preferred term. The listings by subject were produced for all deaths, all SAEs and all AEs leading to discontinuation of study drug. […]

**Q.** For “Ipilimumab: fully human IgG1 anti-CTLA-4 monoclonal antibody, CAS 477202-00-9, light/heavy chain variable regions SEQ ID NO:1 and 2”, which tumor regressions (melanoma; initial studies in patients with melanoma) is on record?
**A.** The tumor regressions was “objective durable tumor regressions”.

**Q.** And the antitumor activity (melanoma; patients with advanced melanoma)?
**A.** The antitumor activity was “demonstrated antitumor activity”.

**Q.** And the serum tumor markers [1]?
**A.** Its serum tumor markers is “reductions of serum tumor markers”.

**Q.** What about the “potentiation of chemotherapy-related toxicity” value (NSCLC Subjects) of the same substance?
**A.** The value was “did not potentiate chemotherapy-related toxicity”.
